Reference: PMC12746157, “Light-Regulated Agonists Spatiotemporally Activating the Vitamin D Receptor Mitigate Psoriasis-like Inflammation in Mice without Inducing Hypercalcemia” (ACS Central Science, 2025)
Entries after “also recorded” stand apart in the source; their conditions may differ.

Tests used:
VDR [1] = target: T1, VDR (Homo sapiens, UniProt P11473); assay: Luminescent proximity homogeneous assay (AlphaScreen): interaction of purified VDR, RxR and TRAP220 coactivator fragment; type: biochemical; details: for EC50: n >= 3, read-out: Activity (pEC50) (converted); for Activity in the dark: dark (trans), concentrations up to 10 μM
Procedure: The activity of all molecules was evaluated using a luminescent proximity homogeneous assay to study interactions between purified VDR, RxR and a fragment of the transcriptional coactivator TRAP220 (Supporting Information). This method allowed us to monitor the interaction between TRAP220 and the activated VDR-RxR heterodimer, which is of mechanistic and physiological significance. Both the activation of VDR and the VDR-RxR heterodimer formation are necessary to promote the whole complex association. This system efficiently includes conformational events of the receptor upon activation that go beyond a simple binding measurement. […]
The activity of all molecules was evaluated using an in-vitro luminescent proximity homogeneous assay by using the Alphascreen technology (Cat No. 6760619R, Perkin Elmer, now Revvity). In a transparent 96-well preplate, 10X concentrations of the compounds were prepared in assay buffer (0.1% bovine serum albumin, 2 mM 1,4-dithiothreitol, 25 mM HEPES and 100 mM NaCl; pH 7.3). LSN2148936 was used as positive control. Purified histidine-tagged VDR (44 µM), flag-RxRa (5.7 µM), biotin tagged TRAP220 transcriptional coactivator (500 µM), and the donor and acceptor beads from the AlphaScreen kit (2 µL/mL each), were diluted in assay buffer. In the dark, 6 µL/well of each test compound were pipetted on a white, shallow 96-well ProxiPlateTM […]
(Perkin Elmer, now Revvity, Cat.No. 6006290) in duplicate. Immediately, 54 µL of the protein solution were added and the plate was covered and incubated for 30 min at room temperature in the dark. Meanwhile, the plate with the 10X dilutions was illuminated at 365 nm for 3 min in a 96-well DED array plate (LEDA Teleopto), to allow the photoconversion of the molecules to their cis configuration. The illuminated compounds were mixed with the protein solution and incubated as described above for the plate in the dark. After the incubation time, the counts of both, the dark and illuminated plates, were measured in a Tecan Spark 20M Multimode plate reader with defined settings (excitation: 680 nm, emission: 520-620 nm, excitation time: 100ms, integration time: 300 ms). Biotinylated-His6 peptide (PerkinElmer) was used as a quality control reagent for AlphaScreen® assays and to evaluate compound interaction with the method. The raw data were normalized to the effect of the buffer (0%) and the maximum response obtained with LSN2148936 (100%). Dose-response curves and EC50 values were calculated with Graphpad software. Each experiment was performed in triplicate, with 2 replicates per plate.
4. Hydrogen/deuterium exchange coupled to mass spectrometry (HDX-MS)
The HDX-MS experiments were performed with an in-house automated modular system interfaced with an Orbitrap Exploris 480 mass spectrometer.1 Two inter-day experiments were conducted: one in the dark (first day) and one illuminated with 365 nm light (second day). Sample preparation and on-exchange reactions were performed on opaque plates (VWR® Real-Time […]
mm, Part Nº BC5226) light source was positioned above the Tecan system used for sample preparation. The distance between the UV light and the opaque plates was 80 cm. The 365 nm light illuminated the sample preparation process and the on-exchange reaction on the second day.
A 10 µM VDR-LBD protein stock solution was prepared in 20 mM HEPES buffer (with 150 mM NaCl, 10 mM D-L Methionine and 5 mM DTT) at pH 7.5. The compound 11b was prepared at 10 mM in DMSO. The protein: compound-complex (1:10 molar ratio) was pre-incubated for 1h before the first on-exchange reaction. The HDX reaction was initiated by a 5-fold dilution of the protein stock solution, in the presence and absence of compound 11b, in the corresponding Deuterated buffer at room temperature. Samples were prepared in parallel with three replicates of […]
time point, HDX reactions were quenched with a solution of 3 M Urea and 1% TFA (pH 2.5) followed by online proteolysis with an in-house Pepsin immobilized column and desalting […]

[2] = tested on: IL-23-induced psoriatic-like inflammation; assay: IL-23-induced mouse model of psoriasis (ear thickness); type: in vivo, C57BL/6N mice; details: days 2-4, i.p. PhotoVDRM 0.5 mg/kg
Procedure: Each mice was administered interlueukin 23 (IL-23) once a day for a total of 3 days by intradermal injection (i.d.) into one of the mouse ears. Contralateral ear i.d. injected with PBS was used as control. Subsequently, ear thickness was measured daily, by using a digital caliper, as indicative of psoriasis-course progression (Figure A).
(A) Temporal scheme for IL-23-induced mouse model of psoriasis. Animals were treated with IL-23 (i.d.) in the left ear during three consecutive days (days 1, 2 and 3). In addition, a contralateral control was performed consisting of PBS administration in the right ear. At day 2, 3, and 4 animals were previously intraperitoneally (i.p.) administered with vehicle (saline) and drugs (i.e., LSN2148936; 0.005 mg/kg and PhotoVDRM; 0.5 mg/kg). Both ears were irradiated with 420 or 520 nm light at day 2, 3, and 4 during 8 min. […] (C) Inflammatory ear response measurements. Mice ear thickness determination in animals administrated (ip) on days 2, 3, and 4 with vehicle, LSN2148936 or PhotoVDRM treated with 420 or 520 nm light. Each day, ear thickness was measured in millimeters and represented as percentage of ear thickness increase using the first measurement of PBS-administrated ear as control. Data is shown as mean ± SD, n = 5 mice per group. Statistical analysis between PhotoVDRM and vehicle. *P < 0.05 and **P < 0.01 Student’s t test.

VDR [3] = target: T1, VDR; assay: Luminescent proximity homogeneous assay (AlphaScreen): interaction of purified VDR, RxR and TRAP220 coactivator fragment; type: biochemical; details: UVB narrowband light (315 nm) and visible illumination at 420 nm
[4] = after illumination (365 nm) for 3 min, mean ± SEM
[5] = after illumination (365 nm) for 3 min, normalized to maximum response of LSN2148936 (100%), mean ± SEM

T1 sequence (P11473 whole entry, the tested form may be a part): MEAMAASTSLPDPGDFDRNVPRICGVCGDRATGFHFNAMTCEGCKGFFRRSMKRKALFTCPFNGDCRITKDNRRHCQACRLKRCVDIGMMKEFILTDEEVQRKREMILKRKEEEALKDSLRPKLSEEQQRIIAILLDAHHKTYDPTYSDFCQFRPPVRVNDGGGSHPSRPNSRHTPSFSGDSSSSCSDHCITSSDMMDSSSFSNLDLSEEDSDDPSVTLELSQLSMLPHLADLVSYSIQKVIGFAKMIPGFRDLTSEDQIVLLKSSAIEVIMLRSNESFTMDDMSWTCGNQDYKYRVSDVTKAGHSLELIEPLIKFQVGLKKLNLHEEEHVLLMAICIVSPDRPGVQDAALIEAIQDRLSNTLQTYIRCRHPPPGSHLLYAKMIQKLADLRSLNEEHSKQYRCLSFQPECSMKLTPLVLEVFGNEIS
T1 sequence (P19793 whole entry partner, the tested form may be a part): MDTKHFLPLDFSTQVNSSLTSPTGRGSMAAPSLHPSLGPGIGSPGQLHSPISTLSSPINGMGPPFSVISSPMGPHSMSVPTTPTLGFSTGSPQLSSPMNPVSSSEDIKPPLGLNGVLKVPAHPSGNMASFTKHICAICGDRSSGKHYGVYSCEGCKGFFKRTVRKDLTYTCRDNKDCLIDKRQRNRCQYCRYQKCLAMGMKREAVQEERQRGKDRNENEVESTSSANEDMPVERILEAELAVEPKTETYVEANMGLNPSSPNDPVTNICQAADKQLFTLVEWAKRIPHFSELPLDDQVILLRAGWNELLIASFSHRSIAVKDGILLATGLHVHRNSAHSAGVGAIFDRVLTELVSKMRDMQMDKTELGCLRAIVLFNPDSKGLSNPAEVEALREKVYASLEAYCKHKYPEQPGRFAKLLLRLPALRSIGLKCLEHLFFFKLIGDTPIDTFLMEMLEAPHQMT
T1 sequence (Q15648 whole entry partner, the tested form may be a part): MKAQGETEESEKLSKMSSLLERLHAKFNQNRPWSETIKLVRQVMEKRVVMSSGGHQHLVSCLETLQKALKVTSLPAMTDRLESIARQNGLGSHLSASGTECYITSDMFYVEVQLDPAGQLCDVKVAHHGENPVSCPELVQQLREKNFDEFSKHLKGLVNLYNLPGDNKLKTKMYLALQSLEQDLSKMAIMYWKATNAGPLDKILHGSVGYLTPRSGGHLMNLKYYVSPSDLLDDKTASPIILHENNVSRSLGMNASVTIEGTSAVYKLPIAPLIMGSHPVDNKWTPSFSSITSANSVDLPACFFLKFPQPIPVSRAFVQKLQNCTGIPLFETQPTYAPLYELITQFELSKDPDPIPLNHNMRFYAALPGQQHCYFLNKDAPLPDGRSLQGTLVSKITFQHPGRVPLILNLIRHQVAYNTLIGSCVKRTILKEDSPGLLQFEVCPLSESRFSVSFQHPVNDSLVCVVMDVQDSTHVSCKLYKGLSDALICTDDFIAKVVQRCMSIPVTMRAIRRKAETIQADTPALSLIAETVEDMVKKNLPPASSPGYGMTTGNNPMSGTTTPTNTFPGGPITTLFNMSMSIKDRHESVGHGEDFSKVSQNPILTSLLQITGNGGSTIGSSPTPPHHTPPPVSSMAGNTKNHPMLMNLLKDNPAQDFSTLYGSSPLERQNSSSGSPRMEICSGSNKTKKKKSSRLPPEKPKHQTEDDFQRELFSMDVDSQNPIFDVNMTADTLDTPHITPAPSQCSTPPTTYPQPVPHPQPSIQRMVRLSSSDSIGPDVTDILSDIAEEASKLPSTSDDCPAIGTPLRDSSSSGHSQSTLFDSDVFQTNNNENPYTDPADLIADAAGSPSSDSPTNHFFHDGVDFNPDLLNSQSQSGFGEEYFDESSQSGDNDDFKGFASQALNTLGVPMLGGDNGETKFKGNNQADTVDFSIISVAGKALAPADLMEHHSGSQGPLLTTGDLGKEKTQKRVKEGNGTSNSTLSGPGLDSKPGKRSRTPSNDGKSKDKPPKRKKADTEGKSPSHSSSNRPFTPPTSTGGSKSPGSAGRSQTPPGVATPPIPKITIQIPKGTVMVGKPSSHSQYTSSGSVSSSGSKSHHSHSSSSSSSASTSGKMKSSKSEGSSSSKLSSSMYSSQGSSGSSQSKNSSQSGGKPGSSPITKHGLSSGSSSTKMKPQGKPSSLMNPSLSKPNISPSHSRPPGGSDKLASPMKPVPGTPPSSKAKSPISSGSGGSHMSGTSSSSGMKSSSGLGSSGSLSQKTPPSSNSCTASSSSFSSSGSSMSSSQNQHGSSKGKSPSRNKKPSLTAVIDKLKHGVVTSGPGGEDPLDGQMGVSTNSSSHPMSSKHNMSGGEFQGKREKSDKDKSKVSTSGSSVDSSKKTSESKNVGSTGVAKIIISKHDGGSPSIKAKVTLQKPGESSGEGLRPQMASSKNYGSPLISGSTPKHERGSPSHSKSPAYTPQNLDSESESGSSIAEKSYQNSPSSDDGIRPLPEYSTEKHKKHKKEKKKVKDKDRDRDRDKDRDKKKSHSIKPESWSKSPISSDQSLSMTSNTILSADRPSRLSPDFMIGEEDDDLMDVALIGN

Row | Compound | EC50 (VDR [1]; [4]) [nM] | Emax (VDR [1]; [5]) [%] | also measured
1 | COC(=O)c1ccc(-c2cccc(/N=N/c3ccc(OCC(O)C(C)(C)C)c(C)c3)c2)cc1 (centres unmarked) [Compound 10a] | 1100 | 23 ± 2.65 | 
2 | COC(=O)c1ccc(-c2cccc(/N=N/c3ccc(OCC(O)C(C)(C)C)cc3C)c2)cc1 (centres unmarked) [Compound 10b] | 100 | 44 ± 0.66 | 
3 | COC(=O)c1ccc(-c2cccc(/N=N/c3ccc(OCC(O)C(C)(C)C)c(C)c3)c2)c(C)c1 (centres unmarked) [Compound 10c] | 1860 | 29 ± 4.31 | 
4 | COC(=O)c1ccc(-c2cccc(/N=N/c3ccc(OCC(O)C(C)(C)C)cc3C)c2)c(C)c1 (centres unmarked) [Compound 10d] | 813 | 30 ± 1.71 | 
5 | Cc1cc(/N=N/c2cccc(-c3ccc(C(=O)O)cc3)c2)ccc1OCC(O)C(C)(C)C (centres unmarked) [Compound 11a] | 1260 | 60 ± 1.26 | Activity in the dark (VDR [1]): small increase in the activity
6 | Cc1cc(OCC(O)C(C)(C)C)ccc1N=Nc1cccc(-c2ccc(C(=O)O)cc2)c1 (centres unmarked) [Compound 11b] | 58.9 | > 80 | IL-23-induced ear inflammation (ear thickness) ([2]; 420 nm light 8 min): significant reduction; also recorded: full antipsoriatic activity; IL-23-induced ear inflammation (ear thickness) ([2]; 520 nm light 8 min): only partially reduces; Activity (Emax) (VDR [1]; after illumination (365 nm) for 3 min, normalized to maximum response of LSN2148936 (100%), mean ± SEM, listed as 11b (PhotoVDRM)): 84 ± 2.62%; Activity in the dark (VDR [1]): inactive; antagonist activity (VDR [1]; several concentrations with LSN2148936 at 300nM, dark or 365 nm): does no act as antagonist; modulation of activity by light (VDR [3]): modulated the activity
7 | Cc1cc(/N=N/c2cccc(-c3ccc(C(=O)O)cc3C)c2)ccc1OCC(O)C(C)(C)C (centres unmarked) [Compound 11c] | 575 | 68 ± 3.73 | 
8 | Cc1cc(OCC(O)C(C)(C)C)ccc1/N=N/c1cccc(-c2ccc(C(=O)O)cc2C)c1 (centres unmarked) [Compound 11d] | 209 | 93 ± 6.73 | 
9 | Cc1cc(/N=N/c2cccc(-c3ccc(CO)cc3)c2)ccc1OCC(O)C(C)(C)C (centres unmarked) [Compound 12a] | 339 | 31 ± 3.13 | 
10 | Cc1cc(OCC(O)C(C)(C)C)ccc1/N=N/c1cccc(-c2ccc(CO)cc2)c1 (centres unmarked) [Compound 12b] | 794 | 44 ± 5.37 | 
11 | Cc1cc(OCC(O)C(C)(C)C)ccc1/N=N/c1cccc(-c2ccc(CO)cc2C)c1 (centres unmarked) [Compound 12d] | 95.5 | 61 ± 2.01 | 
